Assay [1] relates to PBMC T cells. As to the kind of experiment: Spontaneous T-cell responses against SVX-1 peptides in blood, IFN-γ ELISpot. Type of assay: cell-based, human. The settings on record: among the 6 positive patients. As for the experimental part:
Peripheral blood from 7 lung cancer patients was used to monitor the presence of SVX-1 peptides specific T cells. The cancer patients were recruited at the Hôpital Europeen Georges Pompidou (Paris, France). This study was conducted in accordance with French laws and after approval by the local ethics committee. Blood cells were also collected from 3 anonymous healthy donors at the Etablissement Français du Sang (EFS, Rungis, France) as buffy-coat preparations after informed consent and following EFS guidelines. The blood from the healthy donors served as negative controls.
PBMC were isolated by density centrifugation on Ficoll-Hyperpaque gradients (Sigma-Aldrich). PBMC were cultured for 6 days at 2×10^6 cells/ml in 2 ml per well with complete RPMI medium supplemented with 10% FCS. In each well, a pool of SVX-1 peptides was added at a concentration of 10 μg/ml. On day 2 after the beginning of the culture, IL-2 (Chiron) was added at 20 IU/ml in standard conditions. After 6 days of culture, ELISpot assays were performed using PHA-activated cells pulsed with the pool of SVX-1 peptides or the individual peptides (S1, S2 or S3) as antigen presenting cells (APCs). […]
Spots were counted using an automated stereomicro-scope (Zeiss). The number of specific T cells expressed as spot-forming cells/10^5 cells was calculated after subtracting negative control values (background). […]

Assay [2] concerns Survivin peptides-specific T cell responses. As to the kind of experiment: T cell immunogenicity in mouse strains, ex vivo IFN-γ ELISpot on total splenocytes. The following applies: splenocytes re-stimulated with the individual SVX-1 peptides. As to the method:
T cell immunogenicity of the mixture and individual Survivin derived polypeptides (S1, S2 and S3) was evaluated in different mouse strains (C57BL/6 (H2^b); BALB/c (H2^d) and CBA (H2^k)) and in the pre-clinical mouse model HLA-DRB1*0101, HLA-A*0201 (with α3 from D^b), H-2^/ transgenic mice (Tg HLA-A2/DR1). The objective of this study was to select the optimal genetic background to further investigate the immunogenicity and therapeutic efficacy of the SVX-1 vaccine composes of an equimolar mixture of these 3 Survivin LSPs.
Six (6) to ten (10) weeks old female C57BL/6, BALB/c, and CBA mice were obtained from Charles River (Saint-Germain-Nuelles, France).
The transgenic HLA-A2/DR1 mice, previously described (Pajot et al. 2004), were bred and maintained under specific pathogen-free conditions in an animal facility. […] One week after the last immunization (D21), spleen cells of immunized mice were harvested, and the induction of Survivin peptides-specific T cell responses was detected ex vivo using IFN-γ ELISpot assay on the total splenocytes (2×10^5 cells) re-stimulated overnight with the mix of peptides or the individual peptides. […]

Take “HRISTFKNWPFLEGCACT (alpha-isoform survivin S1 positions 17-34) [18 amino acid peptide consisting of wild type Survivin amino acids 17-34]”: in assay [1], the “Spontaneous T cell responses against individual peptides in lung cancer patients” value is listed as “detected”. The “T cell responses against individual peptides in CBA mice” value in assay [2] is “mainly directed against the S1 peptides”.

Values taken from patent US20200061173A1, “IMMUNOGENIC COMPOSITION COMPRISING SURVIVIN PEPTIDES” (Vaxeal Research SAS, priority 2016, published 2020).
